Reference: patent US11274100B2, “EP300/CREBBP inhibitor” (Daiichi Sankyo Company, Limited, priority 2017, dated 2022)

How the values were obtained:
TE-8 cells [1] = assay: Cell growth inhibitory activity, TE-8 cells (Test Example 3); assay type: cell-based; conditions: Homo sapiens, 72 h, cultured for 3 days, CellTiter-Glo
In short: (§1)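 LK2 and TE-8 […] cells in RPMI 1640 with 10% FBS exposed to 10-point 4-fold dilutions (10 mM to 38 nM, stock series) for 3 days. ATP luminescence (CellTiter-Glo 2.0) at day 0 and day 3 gave survival as (T3−C0)/(C3−C0)×100; GI50 from semilog plot.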

TE-8 cells [2] = assay: Antitumor activity in TE-8 cell subcutaneous transplant model (Test Example 5); assay type: in vivo, female BALB/c-nu/nu mice; conditions: TE-8 subcutaneous transplant model, test end day
Description: [Test Example 5] Evaluation of Antitumor Activity in TE-8 Cell Subcutaneous Transplant Model
TE-8 cells were transplanted at a rate of 1×10^7 cells/head subcutaneously into a right abdominal site of each of female BALB/c-nu/nu mice, and 9 days after (Example 73) or 10 days after (Examples 35 and 84), the mice were grouped into groups each consisting of 5 mice based on an estimated tumor volume (longer diameter×shorter diameter×shorter diameter/2) and the weight. The TE-8 cells were purchased from Riken Cell Bank. The female BALB/c-nu/nu mice were purchased from Charles River Laboratories Japan, Inc.
(§2) From the day of grouping, the compound of Example 73 at a dose set to 2 mg/kg/day was orally administered in accordance with a schedule of twice a day continuously for 9 days (BID x 9). The estimated tumor volume of each individual was measured from the day of grouping until 18 days after the transplantation (test end day).
as §2, with “Besides, from” for “From”, “[…]” for “73”, “11” for “9”, “11).” for “9).”, “21” for “18”
(§3) The antitumor activity in LK2 cell subcutaneous transplant model of Test Example 4, the antitumor activity in TE-8 cell subcutaneous transplant model of Test Example 5, the antitumor activity in KARPASS-422 cell subcutaneous transplant model of Test Example 6, the antitumor activity in NMC10-15 cell subcutaneous transplant model of Test Example 7, and the antitumor activity in VCaP cell subcutaneous transplant model of Test Example 8 were respectively calculated on the end dates of the tests in accordance with the following equation: Tumor Growth Inhibition Rate %=(1−TVCt/TVCc)×100 TVC=(individual tumor volume on test end day)−(individual tumor volume on grouping day)
TVCt: average of TVC values of administration group
TVCc: average of TVC values of non-administration group

LK2 cells [3] = assay: Cell growth inhibitory activity, LK2 cells (Test Example 3); assay type: cell-based; conditions: Homo sapiens, LK-2, 72 h, cultured for 3 days, CellTiter-Glo
In short: as §1

CREBBP = CREBBP (Homo sapiens, UniProt Q92793); assay: Histone acetyltransferase inhibitory activity against CREBBP (Test Example 1); assay type: biochemical; conditions: 125 ng/mL CREBBP, 2 μM Acetyl-CoA, 100 nM Histone H4(1-25)-GSGSK (Biotin), 28° C. for 1 hour
In short: (§4)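 Enzyme (50 ng/mL EP300 or 125 ng/mL CREBBP) incubated 1 h at 28° C with 2 μM acetyl-CoA, 100 nM biotinylated histone H4(1-25) peptide and 10 to 0.0006 μM compound in pH 8.0 Tris buffer with 330 nM trichostatin A, 1% DMSO. Reaction stopped with Lys-CoA; acetylation read by TR-FRET (Eu-anti pan-Ac/Sta-ULight) after overnight room-temperature incubation.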

H3K27Ac = assay: Intracellular H3K27Ac inhibitory activity in LK2 cells (Test Example 2); assay type: cell-based; conditions: Homo sapiens, LK-2, cultured with compound for 3 hours, read-out: Test Example 2 H3K27Ac Inhibition (LK2) IC50
In short: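 Human squamous lung cancer LK2 cells (40000/well) cultured overnight at 37 °C, 5% CO2 before treatment. After paraformaldehyde fixation, peroxide quench and blocking, H3K27 acetylation detected with anti-acetyl-H3K27 rabbit mAb (4 °C overnight) and HRP secondary; chemiluminescent read-out.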

EP300 = EP300 (Homo sapiens, UniProt Q09472); assay: Histone acetyltransferase inhibitory activity against EP300 (Test Example 1); assay type: biochemical; conditions: 50 ng/mL EP300, 2 μM Acetyl-CoA, 100 nM Histone H4(1-25)-GSGSK (Biotin), 28° C. for 1 hour
In short: as §4

LK2 cells [4] = assay: Antitumor activity in LK2 cell subcutaneous transplant model (Test Example 4); assay type: in vivo, female BALB/c-nu/nu mice; conditions: test end day
Description: [Test Example 4] Evaluation of Antitumor Activity in LK2 Cell Subcutaneous Transplant Model
LK2 cells were transplanted at a rate of 2×10^6 cells/head subcutaneously into a right abdominal site of each of female BALB/c-nu/nu mice, and 7 days after, the mice were grouped into groups each consisting of 5 mice based on an estimated tumor volume (longer diameter×shorter diameter×shorter diameter/2) and the weight. The LK2 cells were purchased from Human Science Research Resources Bank. […] The estimated tumor volume of each individual was measured from the day of grouping until 18 days after the transplantation (test end day).
as §3
TVCt: average of TVC values of administration group […]

KARPAS-422 cells = assay: Antitumor activity in KARPAS-422 cell subcutaneous transplant model (Test Example 6); assay type: in vivo, female SCID mice; conditions: KARPAS422 subcutaneous transplant model, dose 6 mg/kg/day, test end day
Description: [Test Example 6] Evaluation of Antitumor Activity in KARPAS-422 Cell Subcutaneous Transplant Model
KARPAS-422 cells of human diffuse large B-cell lymphoma were transplanted at a rate of 2×10^7 cells/head subcutaneously into a right abdominal site of each of female SCID mice, and 10 days after, the mice were grouped into groups each consisting of 5 mice based on an estimated tumor volume (longer diameter×shorter diameter×shorter diameter/2) and the weight. The KARPAS-422 cells were purchased from Deutsche Sammlung von Mikroorganismen und Zelkulturen GmbH. […] The estimated tumor volume of each individual was measured from the day of grouping until 28 days after the transplantation (test end day).
as §3, with “grouping day) […]” for “grouping day)”

VCaP cells = assay: Antitumor activity in VCaP cell subcutaneous transplant model (Test Example 8); assay type: in vivo, male NSG mice; conditions: oral
Description: [Test Example 8] Evaluation of Antitumor Activity in VCaP Cell Subcutaneous Transplant Model
VCaP cells derived from human prostate cancer were transplanted at a rate of 1×10^7 cells/head subcutaneously into a right abdominal site of each of male NSG mice, and 8 days after, the mice were grouped into groups each consisting of 5 mice based on an estimated tumor volume (longer diameter×shorter diameter×shorter diameter/2) and the weight. The VCaP cells were purchased from American Type Culture Collection. […] The estimated tumor volume of each individual was measured from the day of grouping until 24 days after the transplantation (test end day).
as §3, with “grouping day) […]” for “grouping day)”

NMC10-15 cells = assay: Antitumor activity in NMC10-15 cell subcutaneous transplant model (Test Example 7); assay type: in vivo, female BALB/c-nu/nu mice; conditions: NMC10-15 subcutaneous transplant model, oral, QD×9, 15 days after transplantation
Description: [Test Example 7] Evaluation of Antitumor Activity in NMC10-15 Cell Subcutaneous Transplant Model
NMC10-15 cells derived from human nut midline carcinoma were transplanted at a rate of 5×10^6 cells/head subcutaneously into a right abdominal site of each of female BALB/c-nu/nu mice, and 6 days after, the mice were grouped into groups each consisting of 5 mice based on an estimated tumor volume (longer diameter×shorter diameter×shorter diameter/2) and the weight. […] The estimated tumor volume of each individual was measured from the day of grouping until 15 days after the transplantation (test end day).
as §3, with “grouping day) […]” for “grouping day)”

Chain of EP300 (Q09472 whole entry): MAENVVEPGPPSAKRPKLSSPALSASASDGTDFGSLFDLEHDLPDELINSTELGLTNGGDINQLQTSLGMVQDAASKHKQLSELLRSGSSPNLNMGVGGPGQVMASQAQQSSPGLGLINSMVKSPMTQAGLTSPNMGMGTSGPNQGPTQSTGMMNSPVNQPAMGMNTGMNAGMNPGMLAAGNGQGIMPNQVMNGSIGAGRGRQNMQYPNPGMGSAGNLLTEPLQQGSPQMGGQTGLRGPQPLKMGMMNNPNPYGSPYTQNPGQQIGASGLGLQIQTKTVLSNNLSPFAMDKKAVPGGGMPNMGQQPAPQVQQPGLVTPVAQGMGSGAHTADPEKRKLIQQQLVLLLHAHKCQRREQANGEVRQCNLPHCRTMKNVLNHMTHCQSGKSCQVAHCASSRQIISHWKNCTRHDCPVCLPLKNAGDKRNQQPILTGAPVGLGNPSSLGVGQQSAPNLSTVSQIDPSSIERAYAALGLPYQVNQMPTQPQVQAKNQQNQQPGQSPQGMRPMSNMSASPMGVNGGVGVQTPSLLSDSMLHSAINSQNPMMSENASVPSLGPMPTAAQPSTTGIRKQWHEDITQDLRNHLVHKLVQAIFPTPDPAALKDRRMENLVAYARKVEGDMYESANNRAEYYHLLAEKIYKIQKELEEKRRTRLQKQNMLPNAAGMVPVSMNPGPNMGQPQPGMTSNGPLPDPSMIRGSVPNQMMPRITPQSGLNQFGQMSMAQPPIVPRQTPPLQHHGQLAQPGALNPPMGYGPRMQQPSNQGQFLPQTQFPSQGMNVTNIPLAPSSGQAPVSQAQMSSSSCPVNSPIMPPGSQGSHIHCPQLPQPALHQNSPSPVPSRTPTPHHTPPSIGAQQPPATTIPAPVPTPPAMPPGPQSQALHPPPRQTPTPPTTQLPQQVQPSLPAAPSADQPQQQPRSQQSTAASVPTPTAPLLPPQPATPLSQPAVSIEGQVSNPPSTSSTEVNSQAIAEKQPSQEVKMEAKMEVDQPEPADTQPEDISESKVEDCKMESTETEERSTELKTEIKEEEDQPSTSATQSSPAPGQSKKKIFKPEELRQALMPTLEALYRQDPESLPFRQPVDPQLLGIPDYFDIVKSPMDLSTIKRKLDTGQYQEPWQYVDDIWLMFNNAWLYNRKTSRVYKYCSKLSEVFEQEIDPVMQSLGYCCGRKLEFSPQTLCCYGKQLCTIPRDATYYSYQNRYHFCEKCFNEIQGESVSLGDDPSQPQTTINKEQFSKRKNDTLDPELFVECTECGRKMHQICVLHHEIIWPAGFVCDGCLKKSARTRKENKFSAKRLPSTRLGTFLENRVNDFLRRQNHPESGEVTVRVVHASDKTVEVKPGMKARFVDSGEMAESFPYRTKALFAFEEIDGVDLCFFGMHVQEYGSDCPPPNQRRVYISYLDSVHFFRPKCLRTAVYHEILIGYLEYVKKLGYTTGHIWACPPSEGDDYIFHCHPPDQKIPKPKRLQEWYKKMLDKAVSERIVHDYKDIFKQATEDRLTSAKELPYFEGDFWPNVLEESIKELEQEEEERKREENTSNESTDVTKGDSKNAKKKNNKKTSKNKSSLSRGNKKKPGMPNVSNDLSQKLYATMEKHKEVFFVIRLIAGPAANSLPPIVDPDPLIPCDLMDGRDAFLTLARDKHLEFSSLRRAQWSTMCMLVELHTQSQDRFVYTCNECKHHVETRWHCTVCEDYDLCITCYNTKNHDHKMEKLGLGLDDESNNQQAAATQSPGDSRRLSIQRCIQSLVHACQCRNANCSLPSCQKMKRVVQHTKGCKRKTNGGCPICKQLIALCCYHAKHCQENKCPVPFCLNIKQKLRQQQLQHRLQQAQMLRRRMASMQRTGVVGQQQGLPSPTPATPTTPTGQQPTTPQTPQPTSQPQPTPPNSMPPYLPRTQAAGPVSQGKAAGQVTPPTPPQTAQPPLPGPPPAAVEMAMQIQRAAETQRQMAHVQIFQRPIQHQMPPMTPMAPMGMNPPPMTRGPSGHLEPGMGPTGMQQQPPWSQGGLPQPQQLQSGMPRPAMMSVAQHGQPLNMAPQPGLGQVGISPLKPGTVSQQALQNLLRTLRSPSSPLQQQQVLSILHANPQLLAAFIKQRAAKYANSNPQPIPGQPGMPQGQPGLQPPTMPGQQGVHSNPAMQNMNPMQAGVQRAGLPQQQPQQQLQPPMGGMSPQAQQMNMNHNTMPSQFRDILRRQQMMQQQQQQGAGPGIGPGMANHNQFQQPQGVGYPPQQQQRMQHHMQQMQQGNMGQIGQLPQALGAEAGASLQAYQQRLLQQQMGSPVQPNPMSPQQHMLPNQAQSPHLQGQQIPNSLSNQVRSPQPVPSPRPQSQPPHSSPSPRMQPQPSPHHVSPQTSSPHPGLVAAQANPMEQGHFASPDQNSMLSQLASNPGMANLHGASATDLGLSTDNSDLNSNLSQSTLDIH
Chain of CREBBP (Q92793 whole entry): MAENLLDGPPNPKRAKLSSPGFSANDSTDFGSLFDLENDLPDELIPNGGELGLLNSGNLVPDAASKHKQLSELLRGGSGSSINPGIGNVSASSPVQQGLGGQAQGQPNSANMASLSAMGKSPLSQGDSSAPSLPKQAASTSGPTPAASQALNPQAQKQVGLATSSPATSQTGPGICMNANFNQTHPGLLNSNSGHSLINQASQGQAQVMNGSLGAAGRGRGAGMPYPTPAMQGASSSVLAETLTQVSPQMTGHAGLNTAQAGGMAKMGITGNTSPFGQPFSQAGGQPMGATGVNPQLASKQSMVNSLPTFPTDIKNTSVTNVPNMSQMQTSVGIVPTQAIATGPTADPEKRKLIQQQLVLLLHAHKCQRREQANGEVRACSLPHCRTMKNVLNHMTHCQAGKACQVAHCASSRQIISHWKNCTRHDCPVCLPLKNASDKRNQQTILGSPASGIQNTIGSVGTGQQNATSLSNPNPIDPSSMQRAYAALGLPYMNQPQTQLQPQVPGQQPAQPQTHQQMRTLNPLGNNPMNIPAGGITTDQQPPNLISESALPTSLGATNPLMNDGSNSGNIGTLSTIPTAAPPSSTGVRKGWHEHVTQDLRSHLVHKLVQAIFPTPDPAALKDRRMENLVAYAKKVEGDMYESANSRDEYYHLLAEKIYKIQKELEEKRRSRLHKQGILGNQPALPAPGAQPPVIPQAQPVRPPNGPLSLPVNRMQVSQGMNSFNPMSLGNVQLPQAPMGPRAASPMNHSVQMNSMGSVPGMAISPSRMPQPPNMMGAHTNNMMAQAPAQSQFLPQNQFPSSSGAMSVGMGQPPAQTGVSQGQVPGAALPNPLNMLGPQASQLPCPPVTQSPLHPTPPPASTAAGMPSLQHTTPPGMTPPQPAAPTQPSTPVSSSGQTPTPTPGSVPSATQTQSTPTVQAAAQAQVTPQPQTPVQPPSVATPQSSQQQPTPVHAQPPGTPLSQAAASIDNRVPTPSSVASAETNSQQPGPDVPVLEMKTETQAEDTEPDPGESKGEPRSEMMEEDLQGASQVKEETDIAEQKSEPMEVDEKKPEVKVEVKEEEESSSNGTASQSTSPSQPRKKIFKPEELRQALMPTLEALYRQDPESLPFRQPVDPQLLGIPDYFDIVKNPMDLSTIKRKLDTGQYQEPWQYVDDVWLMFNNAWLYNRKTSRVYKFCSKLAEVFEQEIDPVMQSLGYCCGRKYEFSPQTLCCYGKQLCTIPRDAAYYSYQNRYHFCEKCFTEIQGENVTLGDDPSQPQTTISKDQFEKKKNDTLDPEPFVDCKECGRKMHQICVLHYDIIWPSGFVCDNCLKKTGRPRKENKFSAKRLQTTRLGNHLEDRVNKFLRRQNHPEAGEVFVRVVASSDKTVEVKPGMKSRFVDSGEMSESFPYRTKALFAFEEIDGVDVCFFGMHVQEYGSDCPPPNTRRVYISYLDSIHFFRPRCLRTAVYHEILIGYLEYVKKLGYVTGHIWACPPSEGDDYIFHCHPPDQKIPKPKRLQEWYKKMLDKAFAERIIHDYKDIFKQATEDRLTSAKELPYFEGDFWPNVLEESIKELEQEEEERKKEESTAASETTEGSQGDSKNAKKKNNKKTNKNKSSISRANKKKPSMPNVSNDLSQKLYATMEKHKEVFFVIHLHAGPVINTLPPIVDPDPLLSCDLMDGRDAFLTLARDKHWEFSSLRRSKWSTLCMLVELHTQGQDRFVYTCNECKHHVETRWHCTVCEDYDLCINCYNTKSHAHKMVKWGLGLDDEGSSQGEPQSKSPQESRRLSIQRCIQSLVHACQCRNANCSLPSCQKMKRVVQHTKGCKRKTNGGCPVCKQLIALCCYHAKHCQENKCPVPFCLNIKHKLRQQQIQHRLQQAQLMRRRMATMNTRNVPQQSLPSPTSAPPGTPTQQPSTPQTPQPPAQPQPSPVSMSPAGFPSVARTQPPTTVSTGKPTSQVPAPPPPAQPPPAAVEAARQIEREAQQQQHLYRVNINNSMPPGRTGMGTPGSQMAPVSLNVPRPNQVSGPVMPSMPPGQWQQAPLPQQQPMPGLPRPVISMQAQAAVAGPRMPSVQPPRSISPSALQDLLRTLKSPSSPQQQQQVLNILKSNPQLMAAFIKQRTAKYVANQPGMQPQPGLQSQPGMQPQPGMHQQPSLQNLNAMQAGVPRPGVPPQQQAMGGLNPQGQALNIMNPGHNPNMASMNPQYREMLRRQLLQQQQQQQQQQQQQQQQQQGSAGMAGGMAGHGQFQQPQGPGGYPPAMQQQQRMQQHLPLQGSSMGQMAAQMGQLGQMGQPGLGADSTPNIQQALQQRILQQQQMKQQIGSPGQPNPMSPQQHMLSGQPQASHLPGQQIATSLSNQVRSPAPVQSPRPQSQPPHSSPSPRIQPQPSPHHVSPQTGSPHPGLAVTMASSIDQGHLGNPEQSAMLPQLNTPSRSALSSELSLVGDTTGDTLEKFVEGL

| SMILES | IC50 (CREBBP) [nM] | IC50 (H3K27Ac) [nM] | IC50 (EP300) [nM] | GI50 (TE-8 cells [1]) [nM] | Tumor Growth Inhibition Rate (TE-8 cells [2]; dose 2 mg/kg/day) [%] | GI50 (LK2 cells [3]) [nM] | Tumor Growth Inhibition Rate (LK2 cells [4]; dose 6.25 mg/kg/day) [%] | Tumor Growth Inhibition Rate (TE-8 cells [2]; dose 6 mg/kg/day) [%] | Tumor Growth Inhibition Rate (LK2 cells [4]; dose 12.5 mg/kg/day) [%] | Tumor Growth Inhibition Rate (KARPAS-422 cells) [%] | Tumor Growth Inhibition Rate (VCaP cells; dose 6 mg/kg/day, QD×16, 24 days after transplantation) [%] | Tumor Growth Inhibition Rate (NMC10-15 cells; dose 3 mg/kg/day) [%] | Tumor Growth Inhibition Rate (VCaP cells; dose 10 mg/kg/day, QOD×8, 24 days after transplantation) [%] | Tumor Growth Inhibition Rate (NMC10-15 cells; dose 0.3 mg/kg/day) [%] |
| --- | --- | --- | --- | --- | --- | --- | --- | --- | --- | --- | --- | --- | --- | --- |
| COc1ccc(C2(C(=O)N3C[C@H](F)C[C@@H]3C(=O)Nc3ccc4c(n3)CC(=O)N4)CCC(F)(F)CC2)cc1 [Example 73, (4R)-1-{[4,4-Difluoro-1-(4-methoxyphenyl)cyclohexyl]carbonyl}-4-fluoro-N-(2-oxo-2,3-dihydro-1H-pyrrolo[3,2-b]pyridin-5-yl)-D-prolinamide] | 148 | 70 | 52 | 620 | 65 | 610 | – | – | – | – | – | – | – | – |
| COc1ccc(C2(C(=O)N3C[C@H](F)C[C@@H]3C(=O)Nc3ccc4c(n3)CC(=O)N4)CCCCC2)cc1 [Example 66, (4R)-4-Fluoro-1-{[1-(4-methoxyphenyl)cyclohexyl]carbonyl}-N-(2-oxo-2,3-dihydro-1H-pyrrolo[3,2-b]pyridin-5-yl)-D-prolinamide] | 73 | 17 | 35 | 847 | 54 | 548 | – | – | – | – | – | – | – | – |
| COc1ccc(C2(C(=O)N3C[C@H](F)C[C@@H]3C(=O)Nc3ccc4[nH]ncc4n3)CCC(F)(F)CC2)cc1 [Example 60, (4R)-1-{[4,4-Difluoro-1-(4-methoxyphenyl)cyclohexyl]carbonyl}-4-fluoro-N-1H-pyrazolo[4,3-b]pyridin-5-yl-D-prolinamide] | 67 | 54 | 28 | 311 | – | 211 | – | – | – | – | 89 | 99 | – | – |
| O=C(Nc1ccc2[nH]ncc2n1)[C@H]1C[C@@H](F)CN1C(=O)C1(c2ccc(OC(F)F)cc2)CCC(F)(F)CC1 [Example 84, (4R)-1-({1-[4-(Difluoromethoxy)phenyl]-4,4-difluorocyclohexyl}carbonyl)-4-fluoro-N-1H-pyrazolo[4,3-b]pyridin-5-yl-D-prolinamide] | 39 | 22 | 26 | 152 | – | 97.2 | – | – | – | – | – | – | 77 | 66 |

Now those with a lower IC50 (CREBBP), led by results:

| IC50 (CREBBP) [nM] | IC50 (H3K27Ac) [nM] | IC50 (EP300) [nM] | SMILES | GI50 (TE-8 cells [1]) [nM] | Tumor Growth Inhibition Rate (TE-8 cells [2]; dose 2 mg/kg/day) [%] | GI50 (LK2 cells [3]) [nM] | Tumor Growth Inhibition Rate (LK2 cells [4]; dose 6.25 mg/kg/day) [%] | Tumor Growth Inhibition Rate (TE-8 cells [2]; dose 6 mg/kg/day) [%] | Tumor Growth Inhibition Rate (LK2 cells [4]; dose 12.5 mg/kg/day) [%] | Tumor Growth Inhibition Rate (KARPAS-422 cells) [%] | Tumor Growth Inhibition Rate (VCaP cells; dose 6 mg/kg/day, QD×16, 24 days after transplantation) [%] | Tumor Growth Inhibition Rate (NMC10-15 cells; dose 3 mg/kg/day) [%] | Tumor Growth Inhibition Rate (VCaP cells; dose 10 mg/kg/day, QOD×8, 24 days after transplantation) [%] | Tumor Growth Inhibition Rate (NMC10-15 cells; dose 0.3 mg/kg/day) [%] |
| --- | --- | --- | --- | --- | --- | --- | --- | --- | --- | --- | --- | --- | --- | --- |
| 18 | 16 | 14 | COc1ccc(C2(C(=O)N3C[C@H](F)C[C@@H]3C(=O)Nc3ccc4[nH]ncc4n3)CCCCC2)cc1F [Example 37, (4R)-4-Fluoro-1-{[1-(3-fluoro-4-methoxyphenyl)cyclohexyl]carbonyl}-N-1H-pyrazolo[4,3-b]pyridin-5-yl-D-prolinamide] | 113 | – | 85.9 | 42 | – | – | – | – | – | – | – |
| 10 | – | 24 | COc1ccc(C2(C(=O)N3C[C@H](F)C[C@@H]3C(=O)Nc3ccc4[nH]ncc4n3)CCCCC2)cc1 [Example 35, (4R)-4-Fluoro-1-{[1-(4-methoxyphenyl)cyclohexyl]carbonyl}-N-1H-pyrazolo[4,3-b]pyridin-5-yl-D-prolinamide] | – | – | – | – | 51 | 44 | 66 | – | – | – | – |
